These results are taken from ChEMBL document CHEMBL1201862, “PubChem BioAssay data set” (2004).

Where “and” joins values, the source holds several entries; their conditions need not be identical. Equal entries are not always repeated.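 Where inhibition never reached the appropriate level, the endpoint shown equals the highest concentration tested. Otherwise, values were interpolated linearly from a five-concentration, 48-hour dose response in 96-well plates. The concentration for 50% growth inhibition is given as GI50.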 Calls of active or inactive are those of the source. No stated cut-off is given here; in the data, active = GI50 up to about 1.1 µM and inactive = higher. A value given as a limit tells only on which side of the number the result lay.

Holding throughout (test): NCI tumour cell line growth inhibition, 48 h
Assay [1] deals with KM12.
The subject of assay [2] is TK-10.
Assay [3] concerns MDA-MB-435.
Assay [4] concerns LOX IMVI.
Assay [5] deals with SK-MEL-2.
For assay [6], the system named is IGROV-1.
The subject of assay [7] is CCRF-CEM.
In assay [8] the test system is HCC 2998.
Assay [9] concerns Malme-3M.
The subject of assay [10] is K562.
The test system of assay [11] is SF-295.
Assay [12] deals with SK-MEL-5.
For assay [13], the system named is HCT-116.
In assay [14] the test system is Hs-578T.
Assay [15] concerns EKVX.
In assay [16] the test system is OVCAR-5.
Assay [17] relates to UACC-62.

For the compound `COc1ccc(-c2oc3cc(OC)c(OC)c(O)c3c(=O)c2OC)cc1`, the GI50 is > 100 µM (inactive) in [1]; 34.1 µM (inactive) in assay [2]; > 100 µM (inactive) in assay [3]; 53.5 µM (inactive) in [4]; 30.6 µM (inactive) in assay [5]; 18.7 µM (inactive) in assay [6]. Also, the GI50 was > 100 µM (inactive) in assay [7]; > 100 µM (inactive) in [8]; > 100 µM (inactive) in assay [9]; > 100 µM (inactive) in assay [10]; 20.8 µM (inactive) in assay [11]; > 100 µM (inactive) in assay [12]. In addition, the GI50 in [13] was > 100 µM (inactive); in [14], 24 µM (inactive); in [15], 41.6 µM (inactive); in assay [16], > 100 µM (inactive); in [17], 21.4 µM (inactive).

As for `COC(=O)C1=C(OC(=O)/C(=C/c2ccccc2)c2ccc(Cl)cc2)C(C(=O)OC)[C@@]2(O)[C@@H](C(=O)OC)[C@H](C)C[C@@H]1[C@@H]2C(=O)OC` (stereo not given in full), the GI50 in assay [1], in assay [2], in [3], in [4], in [5] and in assay [6] was > 100 µM (inactive) throughout. The GI50 is > 100 µM (inactive) in assay [7]; > 100 µM (inactive) in [8]; > 100 µM (inactive) in assay [9]; 2.37 µM (inactive) in assay [10]; > 100 µM (inactive) in assay [11]; > 100 µM (inactive) in assay [12]. In addition, the GI50 in [13], in [14], in [15], in [16] and in assay [17] was > 100 µM (inactive) in each case.

Turning to `O=C(c1ccccc1)c1ccc(N2C(=O)/C(=C/c3cccc(Oc4ccccc4)c3)N=C2c2ccccc2)c(N2C(=O)/C(=C/c3cccc(Oc4ccccc4)c3)N=C2c2ccccc2)c1`, the GI50 in assay [1] is 24.5 µM (inactive); in assay [2], 25.5 µM (inactive); in [3], 4.72 µM (inactive); in assay [4], 32.9 µM (inactive); in assay [5], 17.7 µM (inactive); in assay [6], 39.1 µM (inactive). Moreover, the GI50 in assay [7] was 8.32 µM (inactive); in assay [8], 20 µM (inactive); in assay [9] it was 19.5 µM (inactive); in assay [10], 9.42 µM (inactive); in assay [11], 25 µM (inactive); in assay [12] it was 13.3 µM (inactive). For the same compound, the GI50 in assay [13] was 36.1 µM (inactive); in [14], 26.9 µM (inactive); in assay [15], 44.2 µM (inactive); in assay [16] it was 50.6 µM (inactive); in [17] it was 11.9 µM (inactive).

As for `CCC(CC)C(=O)OC[n+]1cccc(-c2c(COC(=O)NC(C)C)c(COC(=O)NC(C)C)c3n2CCC3)c1`, the GI50 in [1], in [2], in assay [3], in assay [4], in assay [5] and in assay [6] was > 100 µM (inactive) in each case. Moreover, the GI50 in assay [7] was 38.4 µM (inactive); in assay [8] it was > 100 µM (inactive); in [9] it was > 100 µM (inactive); in [10], 97.5 µM (inactive); in [11], > 100 µM (inactive); in assay [12] it was > 100 µM (inactive). Besides, the GI50 in assay [13] was > 100 µM (inactive); in [14], 50.7 µM (inactive); in assay [15], > 100 µM (inactive); in assay [16] it was > 100 µM (inactive); in assay [17], 46.6 µM (inactive).

`Nc1ncnc2c1ncn2[C@H]1C=C[C@@H](NO)C1`: the GI50 in assay [1], in assay [2], in [3], in assay [4], in [5] and in assay [6] was > 100 µM (inactive) in each case. Further, the GI50 in assay [7], in assay [8], in [9], in assay [10], in assay [11] and in [12] was > 100 µM (inactive) throughout. Also, the GI50 in assay [13], in assay [14], in [15], in assay [16] and in assay [17] was > 100 µM (inactive) in each case.

On to `CCOc1cc(CCNC)c2c(ccc3ccc(OC)c(O)c32)c1OC`, for which the GI50 in assay [1] is 11.9 µM (inactive); in assay [2], 18 µM (inactive); in [3] it was 12.6 µM (inactive); in assay [4], 11.5 µM (inactive); in [5] it was 14.2 µM (inactive); in assay [6], 13.9 µM (inactive). In addition, the GI50 in [7] is 14.9 µM (inactive); in [8] it was 15.5 µM (inactive); in [9], 6.92 µM (inactive); in [10] it was 17 µM (inactive); in assay [11], 16.2 µM (inactive); in [12] it was 11.8 µM (inactive). Also, the GI50 in assay [13] was 10.4 µM (inactive); in [14], 17.4 µM (inactive); in [15], 19.3 µM (inactive); in assay [16] it was 14.5 µM (inactive); in assay [17], 15.8 µM (inactive).

With `C[C@]12OC(=O)[C@]3(O)CC[C@H]4[C@@H](C[C@@H](O)[C@@]5(Cl)CC=CC(=O)[C@]45C)[C@]45OCC6C(=O)O[C@@H]1C[C@@]6(C)[C@H](C4=O)[C@@]32O5` (stereo not given in full), the GI50 in assay [1] was 2.15 µM (inactive); in assay [2], 1.6 µM (inactive); in assay [3], 2 µM (inactive); in assay [4] it was 0.951 µM (active); in [5], 1.17 µM (inactive); in [6] it was 1 µM (active). For the same compound, the GI50 in assay [7] was 0.22 µM (active); in assay [8] it was 0.0946 µM (active); in assay [9], 1.3 µM (inactive); in [10], 0.469 µM (active); in assay [11], 3.05 µM (inactive); in assay [12], 1.56 µM (inactive). Further, the GI50 is 0.656 µM (active) in assay [13]; 6.44 µM (inactive) in assay [14]; 1.24 µM (inactive) in [15]; 1.4 µM (inactive) in [16]; 0.879 µM (active) in assay [17].

Turning to `Clc1cc(OCC23CC4CC(CC(C4)C2)C3)nc(OCC23CC4CC(CC(C4)C2)C3)n1`, the GI50 in [1], in [2], in assay [3], in assay [4], in assay [5] and in assay [6] was > 100 µM (inactive) each time. Besides, the GI50 is > 100 µM (inactive) in [7]; > 100 µM (inactive) in assay [8]; > 100 µM (inactive) in assay [9]; > 100 µM (inactive) in assay [10]; 41.7 µM (inactive) in [11]; > 100 µM (inactive) in assay [12]. Further, the GI50 in [13], in assay [14], in [15], in assay [16] and in assay [17] was > 100 µM (inactive) in each case.

As to `C=C(Cl)C(Cl)(CBr)CCC(Br)C(C)(C)Cl` (stereo not given), the GI50 in assay [1] is 1.34 µM (inactive) and 2.32 µM (inactive) and 1.43 µM (inactive); in [2], 3.43 µM (inactive) and 1.93 µM (inactive) and 2.07 µM (inactive); in assay [3] it was 2.18 µM (inactive) and 11.1 µM (inactive) and 1.77 µM (inactive); in [4] it was 19.1 µM (inactive) and 5.7 µM (inactive) and 15.6 µM (inactive); in assay [5] it was 1.31 µM (inactive); in assay [6], 11.9 µM (inactive) and 21.5 µM (inactive) and 8.41 µM (inactive). The GI50 in assay [7] was 5.08 µM (inactive) and 12.5 µM (inactive) and 4.5 µM (inactive); in assay [8], 3.15 µM (inactive) and 2.61 µM (inactive) and 1.59 µM (inactive); in assay [9], 13.6 µM (inactive) and 15.3 µM (inactive) and 7.36 µM (inactive); in assay [10], 1.33 µM (inactive) and 14.4 µM (inactive) and 863 nM (active); in assay [11] it was 1.79 µM (inactive) and 1.65 µM (inactive) and 1.35 µM (inactive); in assay [12], 14.9 µM (inactive) and 12.7 µM (inactive) and 12.4 µM (inactive). Moreover, the GI50 in [13] was 508 nM (active) and 1.95 µM (inactive) and 448 nM (active); in [14] it was 914 nM (active) and 1.11 µM (active) and 665 nM (active); in assay [15] it was 1.79 µM (inactive) and 7.05 µM (inactive) and 3.31 µM (inactive); in [16], 1.93 µM (inactive) and 14.7 µM (inactive) and 3.42 µM (inactive); in assay [17] it was 3.72 µM (inactive) and 1.07 µM (active) and 3.47 µM (inactive).

As to `CCCCCC[C@H]([C@H](C)O)n1cnc2c(N)ncnc21`, the GI50 in assay [1], in assay [2], in assay [3], in assay [4], in assay [5] and in [6] was > 100 µM (inactive) each time. Besides, the GI50 in [7], in [8], in assay [9], in assay [10], in assay [11] and in [12] was > 100 µM (inactive) each time. The GI50 in [13], in assay [14], in [15], in assay [16] and in [17] was > 100 µM (inactive) in each case.
